# Tested on: wild oat (Avena fatua)
# Assay: Test B pre-/postemergence plant response
# Format: in vivo
# Details: for Oat, Wild plant response rating: scale 0 to 100; for Oat, Wild plant response rating (0 to 100 scale): 0 is no effect
# Summary of the method: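 Visual ratings on a 0–100 scale (100 = complete control) were made versus untreated controls 13–15 days after treatment in a greenhouse. Compounds in surfactant-containing non-phytotoxic solvent were applied preemergence to seeds in loam–sand blend or postemergence to 1- to 4-leaf plants (2–18 cm).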
# [1] = Postemergence, 125 g ai/ha, visual rating after 13 to 15 days, scale 0 (no effect) to 100 (complete control)
# [2] = 31 g ai/ha, postemergence, scale 0 to 100, 0 is no effect, 100 is complete control
# [3] = 62 g ai/ha, postemergence, 100 is complete control, 13 to 15 days
# [4] = Postemergence, 250 g ai/ha, scale 0 to 100 (0 no effect, 100 complete control)
# [5] = Postemergence, 125 g ai/ha, scale 0 to 100 (0 no effect, 100 complete control)
# [6] = Postemergence, 31 g ai/ha, 0 to 100 scale (0 no effect, 100 complete control)
compound,measurement,setting,value
"COc1ccc(-n2c(-c3ccccc3)ncc(C(=O)C3=C(O)CCCC3=O)c2=O)cc1 [Compound 4, 5-[(2-hydroxy-6-oxo-cyclohexen-1-yl)carbonyl]-3-(4-methoxyphenyl)-2-phenyl-4(3H)-pyrimidinone]",pest or weed control at 31 g/ha,"Avena fatua, post-emergence, Postemergence, 31 g ai/ha, scale 0 to 100 (0 no effect, 100 complete control), read-out: Plant response rating, Oat, Wild",30%
same,pest or weed control at 62 g/ha,"Avena fatua, post-emergence, Postemergence, 62 g ai/ha, scale 0 (no effect) to 100 (complete control), 13 to 15 days, read-out: Plant response rating, Oat, Wild",50%
same,pest or weed control at 125 g/ha,"Avena fatua, post-emergence, Postemergence, 125 g ai/ha, visual rating after 13 to 15 days, scale 0 (no effect) to 100 (complete control)",50%
same,"Oat, Wild plant response rating","Postemergence, 250 g ai/ha",50
Cc1ccc(-n2c(-c3ccccc3)ncc(C(=O)C3=C(O)CCCC3=O)c2=O)cc1 [Compound 8],"Plant response rating, Oat, Wild","Postemergence, 31 g ai/ha, scale 0 to 100 (0 no effect, 100 complete control)",10
same,"Plant response rating, Oat, Wild","Postemergence, 62 g ai/ha, scale 0 (no effect) to 100 (complete control), 13 to 15 days",15
same,"Plant response rating, Oat, Wild",[1],35
same,"Oat, Wild plant response rating","Postemergence, 250 g ai/ha",35
O=C1CCCC(O)=C1C(=O)c1cnc(-c2ccccc2Br)n(-c2ccccc2)c1=O [Compound 71],"Plant response rating, Oat, Wild",[2],0
same,"Oat, Wild plant response rating (0 to 100 scale)",[3],0
same,"Plant response rating, Oat, Wild",[1],0
same,"Plant response rating, Oat, Wild",[4],5
Cc1ccc(-c2ncc(C(=O)C3=C(O)CCCC3=O)c(=O)n2-c2ccccc2)cc1 [Compound 80],"Plant response rating, Oat, Wild",[2],20
same,"Oat, Wild plant response rating (0 to 100 scale)",[3],30
same,"Plant response rating, Oat, Wild",[1],40
same,"Plant response rating, Oat, Wild",[4],50
Cc1ccccc1-c1ncc(C(=O)C2=C(O)CCCC2=O)c(=O)n1-c1ccccc1 [Compound 82],"Plant response rating, Oat, Wild",[2],0
same,"Oat, Wild plant response rating (0 to 100 scale)",[3],0
same,"Plant response rating, Oat, Wild",[1],5
same,"Plant response rating, Oat, Wild",[4],10
CC(C)CC(=O)OC1=C(C(=O)c2cnc(-c3ccccc3)n(-c3ccccc3)c2=O)C(=O)CCC1 [Compound 83],"Plant response rating, Oat, Wild",[2],10
same,"Oat, Wild plant response rating (0 to 100 scale)",[3],10
same,"Plant response rating, Oat, Wild",[4],10
CCCCn1c(-c2ccccc2)ncc(C(=O)C2=C(O)CCCC2=O)c1=O [Compound 86],"Plant response rating, Oat, Wild",[2],20
same,"Oat, Wild plant response rating (0 to 100 scale)",[3],50
same,"Plant response rating, Oat, Wild",[4],80
O=C1CCCC(OC(=O)C2CC2)=C1C(=O)c1cnc(-c2ccccc2)n(-c2ccccc2)c1=O [Compound 88],"Plant response rating, Oat, Wild",[2],50
same,"Oat, Wild plant response rating (0 to 100 scale)",[3],55
same,"Plant response rating, Oat, Wild",[4],80
CCCCCn1c(-c2ccccc2)ncc(C(=O)C2=C(O)CCCC2=O)c1=O [Compound 89],"Plant response rating, Oat, Wild",[2],10
same,"Oat, Wild plant response rating (0 to 100 scale)",[3],10
same,"Plant response rating, Oat, Wild",[4],50
CC(C)n1c(-c2ccccc2)ncc(C(=O)C2=C(O)CCCC2=O)c1=O [Compound 95],"Plant response rating, Oat, Wild",[2],0
same,"Oat, Wild plant response rating (0 to 100 scale)",[3],0
same,"Plant response rating, Oat, Wild",[4],0
CCCn1c(-c2ccc(F)cc2)ncc(C(=O)C2=C(O)CCCC2=O)c1=O [Compound 102],"Plant response rating, Oat, Wild",[2],5
same,"Oat, Wild plant response rating (0 to 100 scale)",[3],15
same,"Plant response rating, Oat, Wild",[5],40
same,"Plant response rating, Oat, Wild",[4],80
COCC(C)n1c(-c2ccccc2)ncc(C(=O)C2=C(O)CCCC2=O)c1=O (stereo not drawn) [Compound 107],"Plant response rating, Oat, Wild",[2],0
same,"Oat, Wild plant response rating (0 to 100 scale)",[3],5
same,"Plant response rating, Oat, Wild",[5],20
same,"Plant response rating, Oat, Wild",[4],40
COCCn1c(-c2cccc(C)c2)ncc(C(=O)C2=C(O)CCCC2=O)c1=O [Compound 117],"Plant response rating, Oat, Wild",[2],5
same,"Oat, Wild plant response rating (0 to 100 scale)",[3],10
same,"Plant response rating, Oat, Wild",[5],30
same,"Plant response rating, Oat, Wild",[4],35
"COCCCn1c(-c2cccc(C)c2)ncc(C(=O)C2=C(O)CCCC2=O)c1=O [Compound 118, 5-[(2-hydroxy-6-oxo-1-cyclohexane-1-yl)carbonyl]-3-(3-methoxypropyl)-2-(3-methylphenyl)-4(3H)-pyrimidinone]","Plant response rating, Oat, Wild",[2],5
same,"Oat, Wild plant response rating (0 to 100 scale)",[3],5
same,"Plant response rating, Oat, Wild",[5],10
same,"Plant response rating, Oat, Wild",[4],40
CCCCn1c(-c2cc(F)cc(F)c2)ncc(C(=O)C2=C(O)CCCC2=O)c1=O [Compound 121],"Plant response rating, Oat, Wild",[2],60
same,"Oat, Wild plant response rating (0 to 100 scale)",[3],90
same,"Plant response rating, Oat, Wild",[5],98
same,"Plant response rating, Oat, Wild",[4],98
COCCn1c(-c2cccc(F)c2)ncc(C(=O)C2=C(O)CCCC2=O)c1=O [Compound 123],"Oat, Wild plant response rating (0 to 100 scale)",[3],5
same,"Plant response rating, Oat, Wild",[6],0
same,"Plant response rating, Oat, Wild",[5],30
same,"Plant response rating, Oat, Wild",[4],60
O=C1CCCC(O)=C1C(=O)c1cnc(-c2ccccc2)n(C2CCCC2)c1=O [Compound 131],"Plant response rating, Oat, Wild","16 g ai/ha, Postemergence, 0 to 100 scale",0
same,"Oat, Wild plant response rating (0 to 100 scale)",[3],0
same,"Plant response rating, Oat, Wild",[6],0
same,"Plant response rating, Oat, Wild",[5],0

# Source: US8952024B2, “Herbicidal pyrimidone derivatives” (E I du Pont de Nemours and Company, priority 2009, dated 2015)
